Results from PMC3894558, “Chemical signatures and new drug targets for gametocytocidal drug development” (Scientific Reports, 2014).
Where two headings read alike, the source gives them in different places.

System: P. falciparum 3D7 gametocytes
Experiment: alamarBlue gametocyte viability assay, strain 3D7
Type: cell-based, Plasmodium falciparum
Settings: Malaria Box; for Max Resp: DMSO set at 0%, 100 nM epoxomicin set at -100%; for Curve Class / IC50: stages III-V 3D7 gametocytes; for IC50: 11 concentrations, 1:3 dilution; call rule not given here

Row | Compound | IC50 | IC50 (read-out: IC50) | Max Resp | Curve Class
1 | CCOc1ccc(Nc2c3ccccc3nc3ccccc23)cc1.Cl [MMV000304] | – | 16.6 µM | -95% | -2.1
2 | c1ccc(/C2=N/c3ccccc3/N=C(/c3ccccc3)c3ccccc32)cc1 [MMV007113] | Inactive | – | -5% | 4
3 | CC1CCCCN1CCCNC(=O)c1ccc2c(c1)sc1nc(-c3ccc(F)cc3)cn12 (stereo not drawn) [MMV000634] | – | 10.5 µM | -84% | -2.1
4 | COc1ccc(-c2cc3c(nn2)-c2ccccc2C3=O)cc1 [MMV666026] | Inactive | – | 0% | 4
5 | CCCCCCc1cc(O)c2c3c(c(=O)oc2c1)CCC(C)C3 (stereo not drawn) [MMV665987] | Inactive | – | 0% | 4
6 | CC(Oc1ccc(NC(=O)c2cccs2)cc1)C(=O)c1ccc(Cl)cc1 (stereo not drawn) [MMV665886] | – | 18.7 µM | 44% | 2.2
7 | O=c1nc(C=Cc2ccc(Cl)cc2)oc2ccccc12 [MMV007977] | Inactive | – | 25% | 4
8 | Cc1ccc(Cn2c(N3CCC(C(=O)NCc4cccs4)CC3)nc3ccccc32)cc1 [MMV007564] | Inactive | – | -54% | -2.2
9 | Cn1c(=O)c2cc(C(=O)NCCCN3CCCCCC3)sc2c2ccccc21 [MMV019313] | Inactive | – | -46% | -2.2
10 | Cc1ccc(N2C3c4ccccc4N(S(=O)(=O)c4ccc(C)cc4)C2c2ccccc2N3S(=O)(=O)c2ccc(C)cc2)cc1 [MMV007160] | Inactive | – | -3% | 4
11 | CCCCCn1c(=N)n(CC(O)COc2cccc(C)c2)c2ccccc21.Cl (stereo not drawn) [MMV000444] | – | 8.33 µM | -107% | -1.1
12 | O=C(NC1CCCCC1)C(c1cccs1)N(CCc1ccccc1)C(=O)c1ccco1 (stereo not drawn) [MMV666106] | Inactive | – | -29% | 4
13 | Oc1c(C(Nc2ccccn2)c2cccc(Oc3ccccc3)c2)ccc2cccnc12 (stereo not drawn) [MMV665814] | – | 9.35 µM | -107% | -2.1
14 | COCCN(C(=O)Cc1cccs1)C(C(=O)NCc1ccc(OC)cc1)c1ccc(C(C)C)cc1 (stereo not drawn) [MMV666105] | Inactive | – | -42% | -2.2
15 | Cc1ccc(NC(=O)Nc2cccc(Cl)c2)cc1F [MMV000911] | Inactive | – | -36% | -2.2
16 | CCCCCCn1c(=N)n(CC(O)COc2cccc(C)c2)c2ccccc21.Cl (stereo not drawn) [MMV000445] | – | 7.43 µM | -110% | -1.1
17 | COc1cccc(Cn2c(Oc3ccccc3)nc3c2c(=O)n(C)c(=O)n3C)c1 [MMV396705] | Inactive | – | -1% | 4

Row | Compound | IC50 | IC50 (read-out: IC50) | Max Resp | Curve Class
18 | Br.CCn1c2c(c(=N)c3c1CCC3)CCCC2 [MMV000340] | Inactive | – | -49% | -2.2
19 | COc1cccc(C(=O)Nc2ccc(-c3nc4ccccc4[nH]3)cc2)c1 [MMV019762] | Inactive | – | -1% | 4
20 | Cc1ccc(OCCCCCCNCCO)c(C)c1 [MMV666020] | – | 37.2 µM | -64% | -2.2
21 | Cc1cc(NCCN2CCCCC2)c2ccc3ccccc3c2n1 [MMV006203] | – | 8.33 µM | -94% | -1.1
22 | Brc1ccc(Nc2nc3ccccc3nc2Nc2ccc(Br)cc2)cc1 [MMV007224] | – | 20.9 µM | -96% | -2.1
23 | Cc1cccc(N2C(=O)C3C(C2=O)C2(c4ccccc4)C(=O)C3(c3ccccc3)C(c3ccc4c(c3)OCO4)=C2c2ccc3c(c2)OCO3)c1 (stereo not drawn) [MMV007228] | Inactive | – | -1% | 4
24 | COc1ccc(C)c2sc(N(Cc3cccnc3)C(=O)c3ccc(C#N)cc3)nc12 [MMV001241] | Inactive | – | -48% | -2.2
25 | O=C(Cc1ccccc1)NC(c1ccc(Cl)cc1)c1c(O)ccc2ccccc12 (stereo not drawn) [MMV665972] | – | 29.6 µM | -62% | -2.2
26 | CSc1ccccc1C(=O)Nc1nc(-c2ccccn2)cs1 [MMV001246] | – | 11.8 µM | -72% | -2.2
27 | CCCc1cc(O)c2c3c(c(=O)oc2c1)CN(C)CC3 [MMV665841] | – | 0.662 µM | -28% | -1.2
28 | O=C(Nc1ccc(Br)cc1)Nc1cccc(Cl)c1 [MMV001318] | Inactive | – | -20% | 4
29 | FC(F)(F)c1cccc(Nc2nc3ccccc3nc2Nc2cccc(C(F)(F)F)c2)c1 [MMV665794] | – | 18.7 µM | -98% | -2.1
30 | CN(C)c1ccc(C=Cc2nc(=O)c3ccccc3o2)cc1 [MMV006309] | Inactive | – | 2% | 4
31 | COc1ccc(C(=O)C(CCC(CNC(C)(C)C)C(=O)c2ccc(OC)cc2)CNC(C)(C)C)cc1 (stereo not drawn) [MMV007591] | – | 2.64 µM | -109% | -1.1
32 | O=C1c2ccccc2-c2nnc(-c3ccc(Br)cc3)cc21 [MMV665934] | Inactive | – | 17% | 4
33 | CC1CC2=C(CC1CNCCCN(C)C)C(C)(C)CCC2 (stereo not drawn) [MMV665830] | – | 1.66 µM | -88% | -1.1

Now from value to compound, other results behind:

Row | IC50 | IC50 (read-out: IC50) | Compound | Max Resp | Curve Class
34 | Inactive | – | CCN1CCN(c2cc(C)c3cc(NC(=O)c4ccc(OC)c(OC)c4)ccc3n2)CC1 [MMV019074] | -32% | -2.2
35 | Inactive | – | CCN1CCN(Cc2ccc(NC(=O)c3cc4ccc5cccnc5c4[nH]3)cc2)CC1 [MMV020548] | -56% | -3
36 | – | 29.6 µM | COc1ccc2nc(C)cc(Nc3cccc(O)c3)c2c1.Cl [MMV008212] | -64% | -2.2
37 | – | 4.18 µM | CCOc1ccc(-c2nonc2NC(=O)c2cccc(C)c2)cc1OCC [MMV665805] | -69% | -1.2
38 | Inactive | – | CCOC(=O)c1cn(CC)c2cc(N(C)CCc3ccc(OC)c(OC)c3)c(F)cc2c1=O [MMV665977] | 2% | 4
39 | – | 14.8 µM | CCOc1c(Br)cc(C2C(C(=O)OC)=CN(C)C=C2C(=O)OC)cc1OC [MMV006764] | -76% | -2.2
40 | – | 5.26 µM | CCOc1cc2c(cc1OCC)C(c1cc(Cl)c(O)c(OCC)c1)NCC2 (stereo not drawn) [MMV000481] | -81% | -1.1
41 | Inactive | – | CCOC(=O)c1c(C)n(-c2ccc(Cl)cc2)c2ccc(OC(=O)C=Cc3ccccc3)cc12 [MMV666600] | 2% | 4
42 | Inactive | – | O=C(O)C1Cc2c([nH]c3ccccc23)C(c2ccc(Cl)cc2Cl)N1 (stereo not drawn) [MMV008138] | -1% | 4
43 | Inactive | – | CSC1=NC(=Nc2c(C)cccc2C)C2(CCC(C(C)(C)C)CC2)N1c1ccc(Cl)cc1 (stereo not drawn) [MMV666596] | 14% | 4
44 | Inactive | – | COC(=O)c1ccc(Cl)c2c1C1C=CCC1C(c1cccc3ccccc13)N2 (stereo not drawn) [MMV667489] | 1% | 4
45 | Inactive | – | Fc1ccc2[nH]c3c(NCCCN4CCOCC4)ncnc3c2c1 [MMV019871] | -42% | -2.2
46 | – | 29.6 µM | COc1cc(-c2nc(-c3ccc(Sc4ccccc4)cc3)c(-c3ccccc3)[nH]2)cc(OC)c1O [MMV007273] | -62% | -2.2
47 | Inactive | – | O=C(Nc1ccc(CN2CCOCC2)cc1)c1ccc(-c2cc(Cl)ccc2Cl)o1 [MMV020651] | -23% | 4
48 | – | 0.935 µM | Cc1cc(C)c2c(c1)OCN(Cc1ccccc1Cl)C2 [MMV006558] | -44% | -1.2
49 | Inactive | – | CCOC(=O)c1cn(CC)c2cc(N3CCCCC3)c(F)cc2c1=O [MMV665827] | 7% | 4
50 | Inactive | – | CCN(CC)CCCNc1ccnc2cc3ccccc3cc12 [MMV665783] | -50% | -2.2
51 | Inactive | – | CCOc1ccc(-n2cc(-c3ccccc3)c3c(SCc4cc(C)ccc4C)ncnc32)cc1 [MMV085471] | 1% | 4
52 | – | 1.66 µM | COc1cccc(O)c1CN1CCC2(CCCN(Cc3ccc(F)cc3)C2)C1 (stereo not drawn) [MMV666061] | -57% | -1.2
53 | Inactive | – | CCOc1ccc(-c2nc(NC(=O)c3cccc(S(C)(=O)=O)c3)sc2C)cc1 [MMV665913] | -15% | 4
54 | Inactive | – | CCCc1c(C)nc2ccccc2c1O [MMV666081] | 23% | 4
55 | Inactive | – | CCOc1cccc2sc(N(Cc3cccnc3)C(=O)C3CCCCC3)nc12 [MMV001230] | -26% | 4
56 | Inactive | – | CCn1c(SCC(=O)Nc2cc(C(F)(F)F)ccc2Cl)nc2ccccc2c1=O [MMV666103] | -11% | 4
57 | – | 14.8 µM | COc1ccc(CNC2CCN(c3ccc(NC(=O)c4cccc(Cl)c4)cc3)CC2)cc1OC [MMV666067] | -95% | -2.1
